# In US20040176430A1, “Propargyl-trifluoromethoxy-amino-benzothiazole derivatives” (priority 2002, published 2004):
# Values joined by “and” are separate entries in the source; they are usually repeats but may differ in a detail not shown here. Equal values may be shown once.
# Key:
# EAE = experiment: Experimental Allergic Encephalomyelitis (EAE) model of MS; assay type: in vivo, mice; details: 10 mg/kg twice daily, oral gavage, 30 days
# Method: EAE is an accepted animal model of autoimmune disorder (Tisch et al. Proc. Natl. Acad. Sci. USA (1994) 91:437-438). EAE was induced by injecting the encephalitogenic agent consisting of MSCH and commercial CFA containing Mycobacterium tuberculosis H37Ra to the foot-pads of the animals and pertussis toxin intravenously.
# GA-DS in MSCH emulsion was injected in the four footpads. The other compounds were administered to the respective groups by oral gavage twice daily for 30 consecutive days starting from the day of induction until the termination of the study.
# Scoring of EAE clinical signs was initiated from Day 10 post-EAE induction and was continued daily for 20 days. The clinical signs were recorded on observation cards according to a grading system described in the table below.
# The number of dead or moribund animals in each group were summed.
# The mortality rate was calculated as: [formula]
# The mean maximal score (MMS) of each group was calculated as Σ maximal score of each mouse/number of mice in the group.
# The percent inhibition was calculated as [formula]
# The daily scores of each mouse in the test group was summed and the individual mean daily score (IMS) was calculated as IMS=daily score of mouse/observation period (days).
# The mean group score (GMS) will be calculated as Σ IMS of each mouse/number of mice in the group.
# The percent inhibition will be calculated as [formula]
# PC-12 cells = experiment: Effect on MPP+ treated PC-12 cells (LDH release); assay type: cell-based; details: MPP+ 1000 μM for 48 hours, tested compound 10 μM added 30 min prior to MPP+
# Method: Pheochromocytoma PC-12 cells (at a density of 200,000 cells/well) were cultured for 10 days with 50 ng/ml NGF on 6-well culture dishes coated with 200 ug/ml rat tail type I collagen (BD Biosciences, Bedford, Mass., USA). On the day of the experiment the morphological differentiation of the cells was very advanced (typical network formation). In order to initiate the neurotoxic insult, cells were treated with 1000 μM of 1-methyl-4-phenylpyrdinium (MPP+) iodide salt from RBI chemicals (Natick, Mass., USA) for 48 hours in the absence or presence of tested compounds, added to the culture 30 min. prior to MPP+ administration. […] At the cellular level, neuronal cell death is induced by several mechanisms including pathological concentrations of intracellular calcium and free oxygen radicals. Therefore the positive control in this experiment was nimodipine at the concentration of 10 μM (RBI chemicals, Natick, Mass., USA)(a potent L-type calcium channel blocker). At the end of the experiment cell death was measured by assessing Lactate dehydrogenase (LDH) activity in the medium. High medium LDH indicated increased neuronal death that promoted leakage of this cytoplasmic enzyme into the medium.
# Measuring lactate dehydrogenase activity in the medium was performed using a Sigma Diagnostics LD-L reagent. LDH activity was spectrophotometrically monitored at 340 nm by following the rate of conversion of oxidized nicotinamide adenine dinucleotide (NAD^+) to the reduced form of (NADH). Total LDH of each culture (extracellular+intracellular) was obtained by measuring LDH in the medium after freezing and thawing of the cultures. Basal LDH release was measured in untreated cultures (no MPP+). The neurotoxic effect was calculated according to the formula: (LDHs−LDHb)/LDHt×100. (s=sample; b=basal; t=total). Each compound was tested in sixplicate.
# C57bl mice = experiment: Effect on MPP+ toxicity in mice (striatal dopamine and DOPAC); assay type: in vivo; details: for DOPAC Pmol/mg tissue +/− S.E.M. / Dopamine Pmol/mg tissue +/− S.E.M.: 5 mg/kg oral in CMC
# Method: MPP+ is a neuro-toxin and its injection into the brain causes depletion of striatal dopamine. Male C57bl mice, weighing 24-25 g were divided into 4 groups A-D receiving the following treatments:
# A: Oral administration of 0.25% Carboxymethyl cellulose (CMC, 0.1 ml/mouse) and intracerebroventricular (ICV) injection of saline (10 μl/mouse).
# B. Oral administration of 5 mg/kg 3a in 0.1 ml CMC, and ICV injection of 10 μl saline.
# C. Oral administration of 0.1 ml CMC, and ICV injection of 30 μg MPP+ dissolved in 10 μl saline.
# D. Oral administration of 5 mg/kg 3a in 0.1 ml CMC, and ICV injection of 30 μg MPP+ dissolved in 10 μl saline.
# 3a/CMC or CMC alone were orally administered 30 minutes before and 2 hours after ICV injection. The injection was done according to Haley T. J and McCormick W. G (Brit.J. Pharmacol., 1957, 12, 12) using ether anesthesia. Saline or MPP+/saline were injected during 1 second using a syringe that delivered the liquid at a rate of 0.6 ml/min. Two ICV injections were carried out with a 24 hour interval between them. Mice were killed six days after the last injection and striata taken for dopamine and DOPAC determinations. Each striatum was weighed, homogenized in 0.1M Perchloric acid (0.6 ml) containing 2 mM sodium metabisulfite and 0.3 mM EDTA. After centrifugation at 13000 g for 7 minutes, the supernatant was taken for catecholamine determination. Aliquotes of 20 μl were injected into the solvent stream of an HPLC apparatus equipped with a Microsorb column (packing 3 μm, 4.6 mm diameter, 12.5 cm long). The mobile phase was composed of NaH2PO4 100 mM, octan-1-sulphonic acid 1.5 mM, disodium ethylenediaminetetracetic acid 250 μM, methanol 2.3%, acetonitrile 4% in grade deionized water, at a flow rate of 1.0 ml min^−1. Dopamine and DOPAC were detected with an ESA Coulochem model 5014 detector (Bedford, Mass., USA). Column eluates were initially oxidized by an ESA guard cell (model 5020) at +300 mV, then reduced at +60 mV at detector 1 and measured at detector 2 at −250 mV.
# [1] = with ICV MPP+ 30 μg (Group D), striatum six days after last injection
# [2] = without MPP+, ICV saline (Group B), striatum
Compound,GMS % Inhibition (EAE) [%],MMS % Inhibition (EAE) [%],Mortality % Inhibition (EAE) [%],Percent of total LDH release (mean ± S.E.M.) (PC-12 cells),melting point [°C],further results
"C#CCN(CC(=O)c1ccc(C)cc1)c1nc2ccc(OC(F)(F)F)cc2s1 [Compound 9, 2-[Prop-2-ynyl-(6-trifluoromethoxy-benzothiazole-2-yl)-amino]-1-p-tolyl-ethanone]",57.6,48.8,50,–,–,–
"COCCOC(=O)C1=C(C)NC(C)=C(C(=O)OC(C)C)C1c1cccc([N+](=O)[O-])c1 (stereo not drawn) [Nimodipine, reference compound]",–,–,–,3.6 ± 0.4%,–,Percent of total LDH release (mean ± S.E.M.) (PC-12 cells; listed as nimodipine): 3.6%
"C#CCN=c1sc2cc(OC(F)(F)F)ccc2n1CC(=O)c1ccc(C)cc1 [Compound 13, 2-(2-Prop-2-ynylimino-6-trifluoromethoxy-benzothiazole-3-yl)-1-p-tolyl-ethanone]",–,–,–,–,98 to 100,–
"C#CCN(C)c1nc2ccc(OC(F)(F)F)cc2s1.Cl [Compound 3a, Methyl-prop-2-ynyl-(6-trifluoromethoxy-benzothiazol-2-yl)-amine.HCl salt]",–,–,–,10.9% and 10.9 ± 2.3%,–,"Effect on MPP+ caused depletion in striatal concentrations of dopamine and DOPAC (C57bl mice; Group D, 5 mg/kg oral, MPP+ ICV): reduced this depletion; DOPAC Pmol/mg tissue +/− S.E.M. (C57bl mice; [1]): 3.7 +/− 0.2 Pmol/mg tissue; Dopamine Pmol/mg tissue +/− S.E.M. (C57bl mice; [1]): 66.0 +/− 3.4 Pmol/mg tissue; DOPAC Pmol/mg tissue +/− S.E.M. (C57bl mice; [2]): 4.8 +/− 0.4 Pmol/mg tissue; Dopamine Pmol/mg tissue +/− S.E.M. (C57bl mice; [2]): 78.2 +/− 4.3 Pmol/mg tissue"
"C#CCN=c1sc2cc(OC(F)(F)F)ccc2n1C [Compound 10, (3-Methyl-6-trifluoromethoxy-3H-benzothiazol-2-ylidene)-prop-2-ynyl-amine]",37.5,34.1,40,–,–,–
"C#CC(C)N(C)c1nc2ccc(OC(F)(F)F)cc2s1 (stereo not drawn) [Compound 6, Methyl-(1-methyl-prop-2-ynyl)-(6-trifluoromethoxy-benzothiazol-2-yl)-amine]",–,–,–,–,42 to 43,–
"C#CCNc1nc2ccc(OC(F)(F)F)cc2s1.Cl [Compound 4a, Prop-2-ynyl-(6-trifluoromethoxy-benzothiazol-2-yl)-amine.HCl salt]",–,–,–,25 ± 8.0%,–,–
"C#CCN(C)c1nc2ccc(OC(F)(F)F)cc2s1 [Compound 3, Methyl-prop-2-ynyl-(6-trifluoromethoxy-benzothiazol-2-yl)-amine]",87.5,73.5,100,–,–,–
"C#CCNc1nc2ccc(OC(F)(F)F)cc2s1 [Compound 4, Prop-2-ynyl-(6-trifluoromethoxy-benzothiazol-2-yl)-amine]",–,–,–,–,138 to 140,–
